Results: BindingDB's records for doi:10.1021/acs.jmedchem.9b01169 (Boehringer Ingelheim Rcv, 2019)

Test: Inhibition of wild type EGFR in mouse BAF3 cells assessed as reduction in cell proliferation incubated for 72 hrs by Celltiter-Glo luminescent cell viability assay

Structure (SMILES)	IC50 [nM]
CC(C)(O)Cn1/c(=N/C(=O)c2ccnc(-c3ccccc3)c2)[nH]c2ccccc21	> 10000
O=C1/N=C2\Nc3ccccc3N2CCCCCOc2ccccc2-c2cc1ccn2	1300
Cc1cc2cc(n1)-c1cnn(C)c1OCCC[C@@H](C)CN1/C(=N/C2=O)Nc2ccccc21	1100
Cn1cc(-c2cc(C(=O)/N=c3\[nH]c4ccccc4n3CC(C)(C)O)ccn2)cn1	5100
Cn1ncc2c1OCCCCCN1/C(=N/C(=O)c3cc(F)nc-2c3)Nc2ccccc21	270
Cc1cc2cc(n1)-c1cnn(C)c1OCCCCCN1/C(=N/C2=O)Nc2ccccc21	2300
COc1ccncc1-c1cc(C(=O)/N=c2\[nH]c3ccccc3n2CC(C)(C)O)ccn1	700
